One assay concerns X. campestris. The experiment in a line: Diffusion plate assay of TLC fractions, organic acids and bleach. It counts as cell-based. As to conditions: strain B07.007, Xanthomonas campestris; organic acids 1%, bleach 1.3%. Here is the method:
(§1) Bacterial cells were removed by centrifugation (5000×g at 4° C.) and the cell—free supernatant (CFS) was acidified to pH 2.0 with 2N HCL at 4° C. for 16 h resulting in a precipitate that was collected by centrifugation (5000×g for 10 min at 4° C.). The acid precipitate fraction (APF) was dissolved in water (100 mg/mL) and adjusted to pH 7.0 using 1N NaOH. The CFS sample and clean BHM culture medium were concentrated by freeze-drying for 48 h. All samples were stored at −80° C. until further use.
(§2) Separation of CFS and APF fractions was performed by thin layer chromatography (TLC). Acid-cleaned glass plates (20×20 cm) were coated with a thin layer of silica emulsion (160 grams of silica with 15% (w/v) calcium sulphate and with fluorescent indicator GF254 dissolved in 500 mL of double distilled water) purchased from Sigma-Aldrich and dried for 16-18 h at 22° C. Activation of silica plates was done by heating the TLC plates at 120° C. for 30 min prior to use. An amount of 100 mg of each of CFS and APF were dissolved in 400 μL of chloroform: methanol (2:1, v/v) and separated on activated TLC plates with chloroform: methanol: water (70:26:4) as the developing solvent system. Plates were observed under UV (λ=254 nm) and the retention factor (Rf) values were calculated as distance travelled by the samples over the distance travelled by solvent. Only APF separated fractions were used for bioactivity assays. Bands corresponding to the desired Rf values were scraped and collected for extraction. Bands of the same Rf value from different plates were pooled together and extracted twice with chloroform: methanol (v/v/; 2:1). The collected fractions were vacuum-concentrated for 4-6 h at −60° C. using a Speed Vac™ v78100 (Labconco Corp, Kansas City Mo., USA), re-dissolved in 50 μL of methanol and tested against target bacteria and fungi, as well as for biosurfactant activity. Methanol (50 μL) was used as a negative control.
(§3) The biosurfactant activity of the fractions was tested using the oil-spreading and the drop collapse methods, as described above. Fractions were also tested for their antimicrobial activities against a number of bacteria and fungi using the Burkholder diffusion plate method as noted above. Briefly, 10 μL of the dissolved fractions were spotted in the middle of the plates. Positive controls consisted of 10 μL of bleach and of each of the following organic acids: 1% (v/v) of acetic acid, formic acid, citric acid and lactic acid. […] Individual trials were performed in triplicate and the entire assay was repeated twice to confirm the findings.

Assay [1] deals with Salmonella enterica serovars. The assay is described as above. It counts as cell-based. Conditions: organic acids 1%, bleach 1.3%. Here is the method: as §1
as §2, with “Only APF separated fractions were used for bioactivity assays.” left out
as §3

The subject of a further assay is E. coli. The assay is described as above. The format is cell-based, Escherichia coli. As to conditions: organic acids 1%, bleach 1.3%. Here is the method:
as §1, §2, §3

A further assay has as its system Rhizoctonia solani. The experiment in a line: Antimicrobial assay of TLC fractions against fungi. The format is cell-based. As to conditions: organic acids 1%, bleach 1.3%. How it is done:
as §1, §2, §3

In another assay the test system is Botrytis cinerea. The experiment in a line: Antimicrobial assay of TLC fractions against fungi. Conditions: strain F014, Botrytis cinerea; organic acids 1%, bleach 1.3%. The format is cell-based. How it is done:
as §1, §2, §3

Setting [2] is: strain AG1-1A (ROS-2A), R. solani.
Where [3] appears, read: strain AG3 (114), Rhizoctonia solani.

With `CC(=O)O` [AA], the “Microbial activity (clearing zone), fractions, organic acids and bleach” value in the assay on X. campestris was “+++ (clearing zone of 5 mm (+++))”; in assay [1] (strain MAE14, S. enterica Typhimurium), “++ ((++) clearing zone of 4 mm)”; in assay [1] (strain MAE299, S. enterica Typhimurium) it was “++ ((++) clearing zone of 4 mm)”; in assay [1] (strain MAE775, S. enterica Typhimurium), “+++ (clearing zone of 5 mm (+++))”; in assay [1] (strain PARC#5, S. enterica Agona) it was “++ ((++) clearing zone of 4 mm)”; in assay [1] (strain SCS2, S. enterica I: Rough-O: e, h: e, n), “++ ((++) clearing zone of 4 mm)”. Also, the “Microbial activity (clearing zone), fractions, organic acids and bleach” value in assay [1] (strain SL1, S. enterica Newport) is “++ ((++) clearing zone of 4 mm)”; in assay [1] (strain SL2, S. enterica Hartford), “++ ((++) clearing zone of 4 mm)”; in assay [1] (strain UMR1, Salmonella enterica Typhimurium), “++ ((++) clearing zone of 4 mm)”; with E. coli (strain E3-6, Escherichia coli), “++ ((++) clearing zone of 4 mm)”; with E. coli (strain E10-6, E. coli), “++ ((++) clearing zone of 4 mm)”; with E. coli (strain E14-6, E. coli), “++ ((++) clearing zone of 4 mm)”. Moreover, the “Microbial activity (clearing zone), fractions, organic acids and bleach” value is recorded as “++ ((++) clearing zone of 4 mm)” in the assay on E. coli (strain E15-6, E. coli); “++ ((++) clearing zone of 4 mm)” in the assay with Rhizoctonia solani (setting [2]); “++ ((++) clearing zone of 4 mm)” with Rhizoctonia solani (setting [3]); “++ ((++) clearing zone of 4 mm)” in the assay on Botrytis cinerea.

On to `CC(O)C(=O)O` (stereo not shown) [LA], for which the “Microbial activity (clearing zone), fractions, organic acids and bleach” value is “++ ((++) clearing zone of 4 mm)” in the assay on X. campestris; “+ ((+) clearing zone of 3 mm)” with E. coli (strain E3-6, Escherichia coli); “+ ((+) clearing zone of 3 mm)” with E. coli (strain E10-6, E. coli); “+ ((+) clearing zone of 3 mm)” in the assay with E. coli (strain E14-6, E. coli); “+ ((+) clearing zone of 3 mm)” with E. coli (strain E15-6, E. coli); “+ ((+) clearing zone of 3 mm)” with Rhizoctonia solani (setting [2]). For the same molecule, the “Microbial activity (clearing zone), fractions, organic acids and bleach” value with Rhizoctonia solani (setting [3]) and in the assay with Botrytis cinerea was “+ ((+) clearing zone of 3 mm)” throughout.

Consider `O=C(O)CC(O)(CC(=O)O)C(=O)O` [CA], for which the “Microbial activity (clearing zone), fractions, organic acids and bleach” value in the assay with X. campestris is “++ ((++) clearing zone of 4 mm)”; in the assay with E. coli (strain E3-6, Escherichia coli), “+ ((+) clearing zone of 3 mm)”; with E. coli (strain E10-6, E. coli), “+ ((+) clearing zone of 3 mm)”; with E. coli (strain E14-6, E. coli), “+ ((+) clearing zone of 3 mm)”; in the assay on E. coli (strain E15-6, E. coli) it was “+ ((+) clearing zone of 3 mm)”; with Rhizoctonia solani (setting [2]) it was “+ ((+) clearing zone of 3 mm)”. Also, the “Microbial activity (clearing zone), fractions, organic acids and bleach” value in the assay with Rhizoctonia solani (setting [3]) and with Botrytis cinerea was “+ ((+) clearing zone of 3 mm)” each time.

Take `O=CO` [FA]: the “Microbial activity (clearing zone), fractions, organic acids and bleach” value is reported as “+++ (clearing zone of 5 mm (+++))” in the assay with X. campestris; “+++ (clearing zone of 5 mm (+++))” in the assay with E. coli (strain E3-6, Escherichia coli); “+++ (clearing zone of 5 mm (+++))” in the assay with E. coli (strain E10-6, E. coli); “+++ (clearing zone of 5 mm (+++))” in the assay with E. coli (strain E14-6, E. coli); “+++ (clearing zone of 5 mm (+++))” in the assay on E. coli (strain E15-6, E. coli); “+++ (clearing zone of 5 mm (+++))” with Rhizoctonia solani (setting [2]). In addition, the “Microbial activity (clearing zone), fractions, organic acids and bleach” value with Rhizoctonia solani (setting [3]) and with Botrytis cinerea was “+++ (clearing zone of 5 mm (+++))” in each case.

For the origin of these results see patent US20230106836A1, “METHOD OF USING BIOSURFACTANT-PRODUCING BACTERIA AGAINST FUNGAL AND BACTERIAL PATHOGENS” (THE ROYAL INSTITUTION FOR THE ADVANCEMENT OF …, priority 2020, published 2023).
